Experimental data: patent US10844013B2, “Phenyl amino piperidine mTORC inhibitors and uses thereof” (Navitor Pharmaceuticals, Inc., priority 2016, dated 2020)
Counter-ions that a name gives are not always drawn. Like-named read-outs stand apart in the source and are kept apart here.

Tests used:
[1] = tested on: pS6K1 (p-p70 S6 Kinase (Thr389)) in MCF-7 cells; experiment: AlphaLISA Ultra pS6K1 assay; assay type: cell-based; conditions: 2 hours compound incubation
Description: Example 155: AlphaLISA Ultra pS6K1 assay
(§1) Assay Protocol: • 1. Seed MCF-7 cells in Corning 3701 plate and incubate for 20˜24 hour. 12,000˜16,000 cells will be seeded in 36 μL medium per well. • 2. Change the culture medium with fresh medium and incubate for another 2 hours. • 3. Add 12 μL (4×) compounds into the cell plate by HAMILTON. Final DMSO concentration is 0.5%. Incubate for 2 hours. • 4. Aspirate 38 μL by HAMILTON, 10 μL rest per well. • 5. Add 10 μL 2× lysis buffer using HAMILTON; total volume in wells is 20 μL. Allow cells to shake for 30 min. Cover plate by plastic foil and store plate at −80° C. up to analysis. • 6. Thaw cell lysate at RT and transfer 10 ul lysate to assay plate (Optiplate-384). • 7. Add 5 ul acceptor beads into assay plate and incubation for 2 hours • 8. Add 5 ul donor beads and incubation for 2 hours • 9. Count the plate by EnSpire Multimode Plate Reader

[2] = tested on: pAKT (p-Akt 1/2/3 (Ser473)) in MCF-7 cells; experiment: AlphaLISA Ultra pAKT assay; assay type: cell-based; conditions: Homo sapiens, MCF7, 2 hours compound incubation
Description: Example 156: AlphaLISA Ultra pAKT Assay
as §1, with “1.” for “1. Seed”, “for 20-24” for “for 20˜24”, “hour. 16,000-20,000” for “hour. 12,000˜16,000”, “38 j L” for “38 μL”

SMILES | IC50 ([1]; Homo sapiens, MCF7, 2 h) [nM] | IC50 [2] [nM] | IC50 ([1]; read-out: pS6K1 in MCF7: IC50) [nM]
Cc1cc(C)c(C(=O)N2CCN(c3ccccc3C#N)[C@@H](CO)C2)cc1NC1CCN(c2ccccc2C#N)CC1 (single isomer, unassigned) [I-77, 2-[4-({5-[(3R or 3S)-4-(2-Cyanophenyl)-3-(hydroxymethyl)piperazine-1-carbonyl]-2,4-dimethylphenyl}amino)piperidin-1-yl]benzonitrile] | 10 to 1000 | > 10000 | –
Cc1cc(C)c(C(=O)N2CCN(c3ncccc3S(N)(=O)=O)CC2)c(C)c1NC1CCN(c2ncccc2Cl)CC1 [I-186, 2-(4-(3-(1-(3-chloropyridin-2-yl)piperidin-4-ylamino)-2,4,6-trimethylbenzoyl)piperazin-1-yl)pyridine-3-sulfonamide] | 10 to 1000 | > 10000 | –
Cc1cc(C)c(C(=O)N2CCN(c3ccccc3C)[C@@H](CO)C2)cc1NC1CCN(c2ccccc2C#N)CC1 [I-112, (R)-2-(4-(5-(3-(Hydroxymethyl)-4-o-tolylpiperazine-1-carbonyl)-2,4-dimethylphenylamino)piperidin-1-yl)benzonitrile] | 1000 to 3000 | > 10000 | –
Cc1cc(C(F)(F)F)c(NC2CCN(c3ccccc3C#N)CC2)cc1C(=O)N1CCN(c2cccnc2S(N)(=O)=O)CC1 [I-172, 3-(4-(5-((1-(2-cyanophenyl)piperidin-4-yl)amino)-2-methyl-4-(trifluoromethyl)benzoyl)piperazin-1-yl)pyridine-2-sulfonamide] | 3000 to 5000 | > 10000 | –
Cc1cc(C)c(C(=O)N2CCN(c3ccccc3C#N)CC2)cc1NC1CCN(c2cccc(C#N)c2)CC1 [I-18, 2-(4-(5-(1-(3-Cyanophenyl)piperidin-4-ylamino)-2,4-dimethylbenzoyl)piperazin-1-yl)benzonitrile trifluoroacetate] | 1000 to 3000 | > 10000 | –
COc1cc(C)c(NC2CCN(c3ccccc3C#N)CC2)cc1C(=O)N1CCN(c2ccccc2S(N)(=O)=O)CC1 [I-105, 2-(4-(5-(1-(2-Cyanophenyl)piperidin-4-ylamino)-2-methoxy-4-methylbenzoyl)piperazin-1-yl)benzenesulfonamide] | 1000 to 3000 | > 10000 | –
Cc1cc(C)c(C(=O)N2CCN(c3ncccc3S(N)(=O)=O)CC2)c(C)c1N[C@@H]1CCN(c2ccccc2C#N)C[C@@H]1C [I-179, 2-(4-(3-(((3S,4R)-1-(2-cyanophenyl)-3-methylpiperidin-4-yl)amino)-2,4,6-trimethylbenzoyl)piperazin-1-yl)pyridine-3-sulfonamide] | 10 to 1000 | > 10000 | –
Cc1cc(C)c(C(=O)N2CCN(c3ccc(F)cn3)[C@H](CO)C2)c(C)c1NC1CCN(c2cnccn2)CC1 [I-148, [(3S)-4-(5-Fluoro-2-pyridyl)-3-(hydroxymethyl)piperazin-1-yl]-[2,4,6-trimethyl-3-[(1-pyrazin-2-yl-4-piperidyl)amino]phenyl]methanone] | 10 to 1000 | > 10000 | –
Cc1cc(C)c(C(=O)N2CCN(c3ccccc3)[C@@H](C(N)=O)C2)c(C)c1NC1CCN(c2cnccn2)CC1 [I-152, (2R)-1-phenyl-4-(2,4,6-trimethyl-3-{[1-(pyrazin-2-yl)piperidin-4-yl]amino}benzoyl) piperazine-2-carboxamide] | > 10000 | > 10000 | –
Cc1cc(C)c(C(=O)N2CCN(c3ccccc3)C(C(N)=O)C2)c(C)c1NC1CCN(c2ccccc2C#N)CC1 (stereo not drawn) [I-139, 4-(3-{[1-(2-cyanophenyl)piperidin-4-yl]amino}-2,4,6-trimethyl-benzoyl)-1-phenyl-piperazine-2-carboxamide] | 10 to 1000 | > 10000 | –
N#Cc1ccccc1N1CCC(Nc2c(F)ccc(C(=O)N3CCN(c4ccccc4S(N)(=O)=O)CC3)c2F)CC1 [I-109, 2-(4-(3-(1-(2-cyanophenyl)piperidin-4-ylamino)-2,4-difluorobenzoyl)piperazin-1-yl)benzenesulfonamide] | 3000 to 5000 | > 10000 | –
Cc1ccc(NC2CCN(c3ccccc3C#N)CC2)cc1C(=O)N1CCN(c2ccccc2)C(CO)C1 (single isomer, unassigned) [I-82, 2-[4-({3-[(3R or S)-3-(hydroxymethyl)-4-phenylpiperazine-1-carbonyl]-4-methylphenyl}amino)piperidin-1-yl]benzonitrile] | – | > 10000 | 3000 to 5000
CNC(=O)c1ccccc1N1CCN(C(=O)c2cc(NC3CCN(c4ccccc4C#N)CC3)c(C)cc2C)CC1 [I-64] | 10 to 1000 | > 10000 | –
Cc1cc(C)c(C(=O)N2CCN(CC(F)(F)F)[C@@H](CO)C2)cc1NC1CCN(c2ccccc2C#N)CC1 [I-96, (R)-2-(4-(5-(3-(Hydroxymethyl)-4-(2,2,2-trifluoroethyl)piperazine-1-carbonyl)-2,4-dimethylphenylamino)piperidin-1-yl)benzonitrile] | 3000 to 5000 | > 10000 | –
Cc1cc(C)c(C(=O)N2CCN(C(C)C)[C@@H](CO)C2)cc1NC1CCN(c2ccccc2C#N)CC1 [I-114, (R)-2-(4-(5-(3-(Hydroxymethyl)-4-isopropylpiperazine-1-carbonyl)-2,4-dimethylphenylamino)piperidin-1-yl)benzonitrile] | > 10000 | > 10000 | –
Cc1cc(C)c(C(=O)N2CCN(c3cccc(F)c3S(N)(=O)=O)CC2)cc1NC1CCN(c2c(F)cccc2C#N)CC1 [I-92, 2-(4-(5-(1-(2-Cyano-6-fluorophenyl)piperidin-4-ylamino)-2,4-dimethylbenzoyl)piperazin-1-yl)-6-fluorobenzenesulfonamide] | 1000 to 3000 | > 10000 | –
Cc1ccc(C(=O)N2CCN(c3ncccc3S(N)(=O)=O)CC2)c(C)c1NC1CCN(c2ccccc2C#N)CC1 [I-120, 2-(4-(3-(1-(2-cyanophenyl)piperidin-4-ylamino)-2,4-dimethylbenzoyl)piperazin-1-yl)pyridine-3-sulfonamide] | 10 to 1000 | > 10000 | –
Cc1cc(C)c(C(=O)N2CCN(c3ncccc3S(N)(=O)=O)[C@H](C)C2)cc1NC1CCN(c2ccccc2C#N)CC1 [I-122, (R)-2-(4-(5-(1-(2-Cyanophenyl)piperidin-4-ylamino)-2,4-dimethylbenzoyl)-2-methylpiperazin-1-yl)pyridine-3-sulfonamide] | 10 to 1000 | > 10000 | –
Cc1cc(C)c(C(=O)N2CCN(c3ccccn3)[C@H](CO)C2)cc1NC1CCN(c2ccccc2OC(F)(F)F)CC1 [I-183, (S)-(2,4-dimethyl-5-(1-(2-(trifluoromethoxy)phenyl)piperidin-4-ylamino)phenyl)(3-(hydroxymethyl)-4-(pyridin-2-yl)piperazin-1-yl)methanone] | 10 to 1000 | > 10000 | –
Cc1cc(C)c(C(=O)N2CCN(c3cccc(F)c3[S@@](C)(=N)=O)C[C@@H]2C)c(C)c1NC1CCN(c2ccccc2C#N)CC1 [I-189, 2-(4-(3-((S)-4-(3-fluoro-2-((S)-S-methylsulfonimidoyl)phenyl)-2-methylpiperazine-1-carbonyl)-2,4,6-trimethylphenylamino)piperidin-1-yl)benzonitrile] | 10 to 1000 | > 10000 | –
Cc1cc(F)c(NC2CCN(c3ccccc3C#N)CC2)cc1C(=O)N1CCN(c2ccccc2S(N)(=O)=O)CC1 [I-90, 2-(4-(5-(1-(2-cyanophenyl)piperidin-4-ylamino)-4-fluoro-2-methylbenzoyl)piperazin-1-y)benzenesulfonamide] | 3000 to 5000 | > 10000 | –
